Test results published in publication PMC9297786 (Molecular Oncology, 2022).

What follows are molecules tested against T1, ephrin type‐B receptor 4 (EPHB4) (Homo sapiens, UniProt P54760) (assay: Kinase‐Glo Plus luminescence kinase assay; SPR binding also measured). Conditions: not given.
T1 construct: EPHB4 kinase (Carna Biosciences)
T1 sequence (P54760 16-987): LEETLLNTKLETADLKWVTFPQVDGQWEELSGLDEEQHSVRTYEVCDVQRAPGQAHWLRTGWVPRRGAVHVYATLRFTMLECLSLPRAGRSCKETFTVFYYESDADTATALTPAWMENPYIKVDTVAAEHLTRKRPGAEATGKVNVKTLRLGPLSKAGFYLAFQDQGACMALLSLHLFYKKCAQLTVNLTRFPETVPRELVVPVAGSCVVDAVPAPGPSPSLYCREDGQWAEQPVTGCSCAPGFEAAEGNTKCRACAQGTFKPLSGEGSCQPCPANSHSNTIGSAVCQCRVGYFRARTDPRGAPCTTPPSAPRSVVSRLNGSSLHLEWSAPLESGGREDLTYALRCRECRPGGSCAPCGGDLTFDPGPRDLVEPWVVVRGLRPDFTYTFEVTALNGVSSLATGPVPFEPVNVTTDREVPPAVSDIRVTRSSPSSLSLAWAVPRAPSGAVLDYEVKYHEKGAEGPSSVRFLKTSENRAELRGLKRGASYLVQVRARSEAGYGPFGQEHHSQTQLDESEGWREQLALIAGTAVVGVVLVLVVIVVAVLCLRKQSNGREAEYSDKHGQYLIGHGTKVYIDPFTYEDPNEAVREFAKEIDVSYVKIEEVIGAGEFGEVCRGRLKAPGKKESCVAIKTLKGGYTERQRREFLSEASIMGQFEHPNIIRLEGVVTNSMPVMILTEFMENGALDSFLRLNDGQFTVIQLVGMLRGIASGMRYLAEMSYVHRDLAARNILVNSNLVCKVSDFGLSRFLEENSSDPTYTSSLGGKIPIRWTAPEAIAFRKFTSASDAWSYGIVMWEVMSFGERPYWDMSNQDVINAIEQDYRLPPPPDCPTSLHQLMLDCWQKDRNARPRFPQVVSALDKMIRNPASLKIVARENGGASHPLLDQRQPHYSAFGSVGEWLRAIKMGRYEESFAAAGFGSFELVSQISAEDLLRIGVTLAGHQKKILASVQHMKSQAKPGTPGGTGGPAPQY
Assay type: biochemical
Text: Kinase‐Glo Plus luminescence kinase assay; SPR binding also measured on ephrin type‐B receptor 4 (EPHB4) | […]
In the case of `Cc1ccc(C(=O)Nc2cccc(C(F)(F)F)c2)cc1Nc1nc(-c2cccnc2)nc2c1cnn2C` [NVP‐BHG712], the IC50 is reported as 349 nM.

What follows are molecules tested on K562 (assay: cells). Conditions: Homo sapiens, K562, 48 h, read-out: Inhibition rate (%, 10 μM).
Parameters: MTT cell growth inhibition assay, absorbance at 490 nm
Method: Exponential‐phase cells were seeded into 96‐well plates at a density of 2 × 10^4 cells per well in complete medium. After 24 h, cells were treated with drugs at indicated concentrations and incubated for 48 h. Fresh medium containing 20 μL MTT solution (5 mg·mL^−1) was then added to each well. Then plates were incubated for another 4 h at 37 °C. After removing the medium, 150 μL DMSO was added to each well. The absorbance was recorded at 490 nm in the microplate reader and the inhibition ratio (I%) was calculated. The cell growth assay was conducted as described previously. K562 cells were cultured in IMDM containing 10% fetal bovine serum, 100 U·mL^−1 penicillin and 100 U·mL^−1 streptomycin. […] MEG‐01 cells were cultured in DMEM containing 10% fetal bovine serum, 100 U·mL^−1 penicillin and 100 U·mL^−1 streptomycin. […] Cells were grown at 37 °C in a humidified atmosphere with 5% CO2. […] To identify an EPHB4‐specific inhibitor with a potential of rapid translation into clinic, a pool of clinically approved TKIs and compounds was screened in this study (Fig. S2 and Table S4).
`CCOC(=O)C1=C[C@@H](OC(CC)CC)[C@H](NC(C)=O)[C@@H](N)C1` [oseltamivir] was tested, and the inhibition at 10 µM was -47.6%. `COc1ccc2ccc(=O)oc2c1CC=C(C)C` [osthole] showed an inhibition at 10 µM of -21.2%. Molecule `Cc1ccc(Nc2nccc(N(C)c3ccc4c(C)n(C)nc4c3)n2)cc1S(N)(=O)=O` [pazopanib] has an inhibition at 10 µM of 76.2%. `CCOC(=O)C1(c2ccccc2)CCN(C)CC1` [pethidine] was tested, and the inhibition at 10 µM was -43.7%. Work on `Cc1ccc(N(CC2=NCCN2)c2cccc(O)c2)cc1` [phentolamine] yielded an inhibition at 10 µM of -43.1%. `CC(=O)Nc1ccc(OCC(O)CNC(C)C)cc1` (centres unmarked) [practolol] gave an inhibition at 10 µM of -62.1%. Molecule `CC(C)NC(=N)NC(=N)Nc1ccc(Cl)cc1` [proguanil] has an inhibition at 10 µM of -7.92%. For `O=c1ccc2cc3ccoc3cc2o1` [psoralen], the inhibition at 10 µM was -51.5%. `O=c1c(O)c(-c2ccc(O)c(O)c2)oc2cc(O)cc(O)c12` [quercetin] showed an inhibition at 10 µM of -58.4%. Work on `OCCOCCN1CCN(C2=Nc3ccccc3Sc3ccccc32)CC1` [quetiapine] yielded an inhibition at 10 µM of -46.2%. Molecule `CNC(=O)c1cc(Oc2ccc(NC(=O)Nc3ccc(Cl)c(C(F)(F)F)c3)c(F)c2)ccn1` [regorafenib] has an inhibition at 10 µM of 8.49%. With `CC[C@H]1CN2CC[C@]3(C(=O)Nc4ccccc43)[C@@H]2C[C@@H]1/C(=C\OC)C(=O)OC` [rhynchophylline] the inhibition at 10 µM was -47.3%. With `CC(C)(C)NCC(O)c1ccc(O)c(CO)c1` (centres unmarked) [salbutamol] the inhibition at 10 µM was -65.8%. `OCc1cc(C(O)CNCCCCCCOCCCCc2ccccc2)ccc1O` (centres unmarked) [salmeterol] showed an inhibition at 10 µM of -72.7%. Molecule `O=C(/C=C/c1ccc(O)c(O)c1/C=C/c1ccc(O)c(O)c1)O[C@H](Cc1ccc(O)c(O)c1)C(=O)O` [salvianolic acid A] has an inhibition at 10 µM of -32.3%. In the case of `O=C(/C=C/c1ccc(O)c2c1[C@H](C(=O)O[C@H](Cc1ccc(O)c(O)c1)C(=O)O)[C@@H](c1ccc(O)c(O)c1)O2)O[C@H](Cc1ccc(O)c(O)c1)C(=O)O` [salvianolic acid B], the inhibition at 10 µM is reported as -40.8%. `O=C(/C=C/c1ccc(O)c2oc(-c3ccc(O)c(O)c3)cc12)O[C@H](Cc1ccc(O)c(O)c1)C(=O)O` [salvianolic acid C] showed an inhibition at 10 µM of -2.73%. For `CC(C)(C)NC(=O)[C@@H]1C[C@@H]2CCCC[C@@H]2CN1C[C@@H](O)[C@H](Cc1ccccc1)NC(=O)[C@H](CC(N)=O)NC(=O)c1ccc2ccccc2n1` [saquinavir], the inhibition at 10 µM was -30.4%. In the case of `CNC(=O)c1cc(Oc2ccc(NC(=O)Nc3ccc(Cl)c(C(F)(F)F)c3)cc2)ccn1` [sorafenib], the inhibition at 10 µM is reported as 73.4%. For `CC(C)NCC(O)c1ccc(NS(C)(=O)=O)cc1` (centres unmarked) [sotalol], the inhibition at 10 µM was -52.8%. Work on `CCN(CC)CCNC(=O)c1c(C)[nH]c(/C=C2\C(=O)Nc3ccc(F)cc32)c1C` [sunitinib] yielded an inhibition at 10 µM of 73.5%. Work on `O=C1Nc2ccc(Cl)cc2[C@@](C#CC2CC2)(C(F)(F)F)O1` [sustiva] yielded an inhibition at 10 µM of -40.1%. For `CCOc1ccccc1OCCN[C@H](C)Cc1ccc(OC)c(S(N)(=O)=O)c1` [tamsulosin], the inhibition at 10 µM was -35.2%. `CCCc1nc2c(C)cc(-c3nc4ccccc4n3C)cc2n1Cc1ccc(-c2ccccc2C(=O)O)cc1` [telmisartan] showed an inhibition at 10 µM of -8.14%. `COc1cc2nc(N3CCN(C(=O)C4CCCO4)CC3)nc(N)c2cc1OC` (centres unmarked) [terazosin] showed an inhibition at 10 µM of -57%. Work on `CC(C)(C)NCC(O)c1cc(O)cc(O)c1` (centres unmarked) [terbutaline] yielded an inhibition at 10 µM of -58.2%. `COc1cc2c(cc1OC)[C@@H]1Cc3ccc(OC)c(OC)c3CN1CC2` [tetrahydropalmatine] showed an inhibition at 10 µM of -83.4%. `CC(C)[C@H](N)C(=O)OCCOCn1cnc2c(=O)nc(N)[nH]c21` [valaciclovir] gave an inhibition at 10 µM of -63.9%. Molecule `CCCCC(=O)N(Cc1ccc(-c2ccccc2-c2nnn[nH]2)cc1)[C@H](C(=O)O)C(C)C` [valsartan] has an inhibition at 10 µM of -32.4%. In the case of `COc1cc2c(Nc3ccc(Br)cc3F)ncnc2cc1OCC1CCN(C)CC1` [vandetanib, N‐(4‐bromo‐2‐fluorophenyl)‐6‐methoxy‐7‐[(1‐methylpiperidin‐4‐yl)methoxy]quinazolin‐4‐amine], the inhibition at 10 µM is reported as 99.7%. `COc1cc(C=O)ccc1O` [vanillin] was tested, and the inhibition at 10 µM was -86.2%. With `COc1ccc(CCN(C)CCCC(C#N)(c2ccc(OC)c(OC)c2)C(C)C)cc1OC` (centres unmarked) [verapamil] the inhibition at 10 µM was 66%. Work on `COc1c2occc2cc2ccc(=O)oc12` [xanthotoxin] yielded an inhibition at 10 µM of -42.2%. Molecule `Cc1cn([C@H]2C[C@H](N=[N+]=[N-])[C@@H](CO)O2)c(=O)[nH]c1=O` [zidovudine] has an inhibition at 10 µM of 10.3%.

Same assay, conditions: Homo sapiens, K562, 48 h; read-out: Inhibition rate (%, 10 μM)
For `COC1=C[C@@H]2[C@@H]3Cc4ccc(OC)c(O)c4[C@]2(CCN3C)CC1=O` [sinomenine], the inhibition at 10 µM was -4.7%. Molecule `COC1=CC=C2[C@H]3Cc4ccc(OC)c5c4[C@@]2(CCN3C)[C@H]1O5` [thebaine] has an inhibition at 10 µM of -58.3%.

The molecules below were run on K562 (assay: cells). Conditions: Homo sapiens, K562, 48 h.
Parameters: MTT cell growth inhibition after 48 h
Method: (§1) Exponential‐phase cells were seeded into 96‐well plates at a density of 2 × 10^4 cells per well in complete medium. After 24 h, cells were treated with drugs at indicated concentrations and incubated for 48 h. Fresh medium containing 20 μL MTT solution (5 mg·mL^−1) was then added to each well. Then plates were incubated for another 4 h at 37 °C. After removing the medium, 150 μL DMSO was added to each well. The absorbance was recorded at 490 nm in the microplate reader and the inhibition ratio (I%) was calculated. The cell growth assay was conducted as described previously. […] To identify an EPHB4‐specific inhibitor with a potential of rapid translation into clinic, a pool of clinically approved TKIs and compounds was screened in this study (Fig. S2 and Table S4).
For `COc1cc2c(Nc3ccc(Br)cc3F)ncnc2cc1OCC1CCN(C)CC1` [vandetanib, N‐(4‐bromo‐2‐fluorophenyl)‐6‐methoxy‐7‐[(1‐methylpiperidin‐4‐yl)methoxy]quinazolin‐4‐amine], the IC50 was 2180 ± 1070 nM.

These molecules were tested on H9 cells (assay: cells). Conditions: Homo sapiens, H9, 48 h.
Parameters: MTT cell growth inhibition after 48 h
Method: as §1
`COc1cc2c(Nc3ccc(Br)cc3F)ncnc2cc1OCC1CCN(C)CC1` [vandetanib, N‐(4‐bromo‐2‐fluorophenyl)‐6‐methoxy‐7‐[(1‐methylpiperidin‐4‐yl)methoxy]quinazolin‐4‐amine] showed an IC50 of 11200 ± 1080 nM.

These molecules were tested on MEG-01 cells (assay: cells). Conditions: Homo sapiens, MEG-01, 48 h.
Parameters: MTT cell growth inhibition after 48 h
Method: as §1
In the case of `COc1cc2c(Nc3ccc(Br)cc3F)ncnc2cc1OCC1CCN(C)CC1` [vandetanib, N‐(4‐bromo‐2‐fluorophenyl)‐6‐methoxy‐7‐[(1‐methylpiperidin‐4‐yl)methoxy]quinazolin‐4‐amine], the IC50 is reported as 1460 ± 1070 nM.

Each molecule was assayed on K562 (assay: cells). Conditions: Homo sapiens, K562, 48 h; read-out: IC50 (uM) K562-WT.
Parameters: MTT cell viability of wild-type K562 beside EPHB4 mutant sublines, 48 h
Method: Exponential‐phase cells were seeded into 96‐well plates at a density of 2 × 10^4 cells per well in complete medium. After 24 h, cells were treated with drugs at indicated concentrations and incubated for 48 h. Fresh medium containing 20 μL MTT solution (5 mg·mL^−1) was then added to each well. Then plates were incubated for another 4 h at 37 °C. After removing the medium, 150 μL DMSO was added to each well. The absorbance was recorded at 490 nm in the microplate reader and the inhibition ratio (I%) was calculated. The cell growth assay was conducted as described previously. […] Similar results were shown for M4 mutants. […] (a) Three‐dimensional structure graph; (b) binding region; (c) plane schematic of interaction between the receptor and ligand. (B) Genomic position of sgRNAs and PAMs for EPHB4 knock‐out line, PAM site was colored in red. (C) The protein expression of EPHB4 in K562, K562‐Crispr‐1 and K562‐Crispr‐2 cells determined by western blot assay. P‐values were generated by one‐way ANOVA using the Tukey test for multiple comparisons. **P < 0.01 versus the K562 group. […] P‐values were generated by one‐way ANOVA using the Tukey test for multiple comparisons. *P < 0.05 versus the K562 group. (E) Five point‐mutation (M1–M5) and their corresponding wild‐type (WT) sequences. The point‐mutations of EPHB4: M1, I14A, G15A; M2, M83A, N85A, G86A; M3, A87Del; M4, S90A, F91A; M5, R93A, L94A. […]
`COc1cc2c(Nc3ccc(Br)cc3F)ncnc2cc1OCC1CCN(C)CC1` [vandetanib, N‐(4‐bromo‐2‐fluorophenyl)‐6‐methoxy‐7‐[(1‐methylpiperidin‐4‐yl)methoxy]quinazolin‐4‐amine] was tested, and the IC50 was 2.05 ± 1.08 µM.
